Source: patent publication US20120283203A1, “METHODS AND COMPOSITIONS FOR THE TREATMENT OF OBESITY, INSULIN RELATED DISEASES AND HYPERCHOLESTEROLEMIA” (Board of Trustees of Michigan State University, priority 2005, published 2012)
“And” between values parts separate entries of the source, which are not always exact repeats. Equal values may be shown once. “Also recorded” adds a separate entry of the source.

What was measured:
[1] = Body weight of C57BL/6J mice on high fat diet, 12-week feeding study; assay type: in vivo; conditions: for weight gain during the treatment period: 8 weeks of treatment in high fat diet, high fat control 9.76 g; for overall weight gain during the experimental period: 12 weeks, high fat control 18.98 g; for weight loss: compared to the high fat diet controls; for body weight: high fat diet with compound, high fat control 36.91 g, normal diet 31.5 g
Protocol: Animals and Diet: Male C57BL/6J mice, 4 weeks old, were purchased from Jackson Laboratories (Bar Harbor, Me., USA). The mice were individually housed under controlled temperature (70° F.) and 12 h light-dark cycles. The mice (n=40) had free access to water and laboratory non-purified diet for 5 days. After acclimatization, the mice were randomly divided into groups 1-5 (n=8) for the study. The experiments were carried out according to the ethical guidelines of University Laboratory Animal Resources (ULAR) at Michigan State University, East Lansing, Mich. The diets, 10% K. Cal. (normal) and 60% K. Cal. (high fat), were purchased from Research Diets (New Brunswick, N.J.). The controls were groups 1 and 2 and received normal (10% K. Cal.) and high fat (60% K. Cal.) diets, respectively, throughout the study. The food was prepared for each treatment separately by mixing 1 g of pure anthocyanin mixture, 500 mg each of betulinic and ursolic acids per kilogram high fat diet. The treatment groups, 3-5, were fed initially for 4 weeks with the high fat diet and then switched to the diet containing anthocyanins, betulinic acid or ursolic acids. Food was changed at intervals of three days to avoid oxidation of the fat or compounds. The daily food intake (FIG. 1) and the weekly body weight for each animal were determined throughout the study (FIG. 2A-C).

[2] = Glucose tolerance test (i.p. glucose 2 g/kg) in high fat diet fed mice; assay type: in vivo, C57BL/6J mice; conditions: for blood glucose level after 90 min of glucose load: 90 min after 2 g/kg i.p. glucose, high fat control 363, normal diet 190
Protocol: Glucose Tolerance Test (GTT). The glucose tolerance test was performed on five animals from each group (n=5) after 6 weeks of supplementation. The blood glucose level was measured at time 0 (min) with a Free Style Flash (TheraSense, Inc., CA) handheld glucometer using the test strips (Free Style, TheraSense, Inc., CA). For GTT, a sterile solution containing 2 g of glucose per kg body weight was injected intraperitoneally (i.p.). The tail vein blood was collected and glucose levels measured at 5, 10, 15, 30, 60, and 90 min, respectively. The blood glucose levels were plotted against the time (FIG. 3).

[3] = Total plasma cholesterol at end of feeding study; assay type: in vivo, C57BL/6J mice; conditions: high fat control 156.4, normal diet 120.5
Protocol: Collection of serum, liver and adipose tissue. The feeding was terminated after 12 weeks.
Determination of Plasma Cholesterol: The total plasma cholesterol was analyzed by Clinical Pathology Laboratory at the Diagnostic Center for Population and Animal Health, College of Veterinary Medicine, Michigan State University according to the established standard analytical protocol for total cholesterol.

[4] = for plasma insulin level: end of feeding, controls 0.47 and 0.41 ng/mL
Protocol: Collection of serum, liver and adipose tissue. The feeding was terminated after 12 weeks. The animals were then anesthetized by using isoflurane, sacrificed and blood was collected by cardiac puncture in heparinized tubes. The plasma was separated by centrifugation at 1600×g for 10 min at 4° C., frozen immediately and stored at −20° C. until use. […] All tissues were then transferred from liquid nitrogen and stored at −80° C. until analyses.
Radio Immuno Assay (RIA). The plasma insulin levels were measured by rat insulin RIA kit purchased from LINCO Research Inc. (St. Charles, Mo.). The insulin standards (100 aliquots) were pipetted to 12×75 mm test tubes. A total of 10 concentrations of insulin, ranging from 0.1-10 ng/mL, were used to determine the standard curve. The plasma samples (aliquots of 1-25 μl) were added to test tubes and the assay buffer was added to attain a total sample volume of 100 μl. The ^125I labeled insulin and anti rat insulin antibody (100 μL each) were added to the tubes, mixed and incubated at 4° C. After 24 h, the precipitating reagent (1 mL) was added and incubated again at 4° C. for 20 min to precipitate the insulin bound to the antibody. The tubes were then centrifuged for 20 min at 3000 g, decanted and the radioactivity was measured using a gamma counter.

INS-1 832/13 cells = experiment: Insulin secretion by INS-1 832/13 pancreatic beta cells (RIA, normalized to cellular protein); assay type: cell-based, rodent; conditions: for increase in insulin secretion: increase over untreated cells; for fold increase in insulin secretion: vs untreated cells
Protocol: Insulin Secretion Studies. INS-1 832/13 cells (kindly provided by Dr Christopher Newgard, Duke University, N.C.) were routinely cultured in 5% CO2/air at 37° C. in RPMI-1640 medium containing 11.1 mM glucose and supplemented with 10% FBS (Fetal Bovine Serum), 10 mM HEPES, 100 U/ml penicillin, […] streptomycin, 4 mM Glutamine, 1 mM sodium pyruvate, and 50 μM 2-mercaptoethanol. Cells were passed weekly after trypsin-EDTA detachment. For static secretion studies, cells were plated on 24 well plates at a density of 0.64×10^6 cells per well and grown for 24 h. The cells were then cultured for an additional 24 h in RPMI-1640 containing 4 mM glucose and the supplements described above. Cells were then incubated twice for 30 min in Krebs Ringer Bicarbonate buffer (KRBB) containing 4 mM glucose and 0.1% BSA. Cells were rapidly washed with KRBB and incubated for 60 min KRBB containing 4 or 10 mM glucose with or without the indicated anthocyanins or anthocyanidins. The medium was then removed for determining insulin release. The cells were then washed twice with PBS and dissolved in 1 M NaOH. Cellular protein concentration was then determined by Lowry assay. Anthocyanins and anthocyanidins were dissolved in DMSO to obtain desired concentrations. Final concentration of DMSO was 0.1%. The insulin secreted into the medium by the cells was determined by radioimmuno assay and normalized to total cellular protein.
Radio Immuno Assay (RIA). The Kit for RIA was purchased from LINCO Research Inc. (St Charles, Mo.), and the assay was conducted according to the manufacturer's directions. Briefly, 0.1-10 ng of insulin standards (100 μl) were added to 12×75 mm test tubes. Similarly, samples (25 μl) from the insulin secretion studies were also added to the test tubes. To this, an aliquot (75 μl) of assay buffer was added. The ^125I labeled insulin (100 μl) was then added to each test tube. […] The tubes were then centrifuged and the radioactivity was measured using a gamma counter.
Lowry protein Assay. The amount of protein in the assay wells was determined by Lowry method. The Lowry assay solution was prepared by combining the Lowry solution, CuSO4.5H2O (1%), and sodium tartarate (1%). Briefly, the protein sample (100 μl) and Lowry mixture (1 mL) were mixed in a test tube (12×75). The Folin-Ciolatues reagent (100 μl) was added to these tubes, mixed, and incubated for 30 min at room temperature. The optical density of resulting solutions was read at 700 nm using a UV spectrophotometer.

[5] = 4 and 10 mM glucose, or glucose level not specified

C=C(C)[C@@H]1CC[C@]2(C(=O)O)CC[C@]3(C)[C@H](CC[C@@H]4[C@@]5(C)CC[C@H](O)C(C)(C)[C@@H]5CC[C@]43C)[C@@H]12 [betulinic acid]
weight gain during the treatment period [1]: 7.73 ± 0.44 g | weight gain during the treatment period ([1]; listed as 2 (group 4)): 7.73 g | overall weight gain during the experimental period [1]: 15.16 g | weight loss [1]: 21% | body weight [1]: 33.54 g | blood glucose level after 90 min of glucose load [2]: 317.8 ± 21.9 mg/dL | blood glucose level at zero time ([2]; before glucose load, high fat control 119.8): 123.4 ± 6.0 mg/dL | plasma cholesterol level [3]: 126.5 ± 14.01 mg/dL | plasma insulin level [4]: 460 ± 93.68 ng/mL and 460.86 ± 193.68 ng/mL

OC[C@H]1O[C@@H](Oc2cc3c(O)cc(O)cc3[o+]c2-c2ccc(O)c(O)c2)[C@H](O)[C@@H](O)[C@H]1O [cyanidin-3-galactoside]
effect on insulin secretion (in words) (INS-1 832/13 cells; 4 mM glucose): did not increase the insulin secretion | increase in insulin secretion (INS-1 832/13 cells; 10 mM glucose, 50 μg/mL): 17 ng/mg of protein | fold increase in insulin secretion (INS-1 832/13 cells; 10 mM glucose, 50 μg/mL): 1.2 fold | effect on insulin secretion (in words) (INS-1 832/13 cells; [5]): significant increase in insulin secretion

OC[C@H]1O[C@@H](Oc2cc3c(O)cc(O)cc3[o+]c2-c2ccc(O)c(O)c2)[C@H](O)[C@@H](O)[C@@H]1O [cyanidin-3-glucoside]
effect on insulin secretion (in words) (INS-1 832/13 cells; 4 mM glucose): less active than delphinidin-3-glucoside | insulin secreted (INS-1 832/13 cells; 4 mM glucose, 5 μg/mL, untreated cells 33): 46 ng of insulin per mg protein | increase in insulin secretion (INS-1 832/13 cells; 4 mM glucose, 50 μg/mL): 9 ng/mg of protein | fold increase in insulin secretion (INS-1 832/13 cells; 4 mM glucose, 50 μg/mL): 1.3 fold | dose dependent insulin secretion (in words) (INS-1 832/13 cells; 4 mM glucose, 10, 50, 100 and 250 μg/mL): no significant difference in insulin secretion | effect on insulin secretion (in words) (INS-1 832/13 cells; 10 mM glucose): more active | insulin secreted (INS-1 832/13 cells; 10 mM glucose, 50 μg/mL): 119 ng/mg protein | fold increase in insulin secretion (INS-1 832/13 cells; 10 mM glucose, 50 μg/mL): 1.43 fold | effect on insulin secretion (in words) (INS-1 832/13 cells; [5]): most effective insulin secretagogues

Oc1cc(O)c2cc(O)c(-c3ccc(O)c(O)c3)[o+]c2c1 [cyanidin]
insulin secreted (INS-1 832/13 cells; 4 mM glucose, 50 μg/mL): 29 ng/mg of protein | fold increase in insulin secretion (INS-1 832/13 cells; 4 mM glucose, 50 μg/mL): 1.5 fold | insulin secreted (INS-1 832/13 cells; 10 mM glucose, 50 μg/mL): 88 ng/mg protein

OC[C@H]1O[C@@H](Oc2cc3c(O)cc(O)cc3[o+]c2-c2cc(O)c(O)c(O)c2)[C@H](O)[C@@H](O)[C@@H]1O [delphinidin-3-glucoside]
insulin secreted (INS-1 832/13 cells; 4 mM glucose, 50 μg/mL): 49 ng/mg of protein | fold increase in insulin secretion (INS-1 832/13 cells; 4 mM glucose, 50 μg/mL): 1.8 fold | insulin secreted (INS-1 832/13 cells; 10 mM glucose, 50 μg/mL): 113 ng/mg protein | fold increase in insulin secretion (INS-1 832/13 cells; 10 mM glucose, 50 μg/mL): 1.4 fold | effect on insulin secretion (in words) (INS-1 832/13 cells; [5]): most effective insulin secretagogues; also recorded: significantly induced the insulin secretion | effect on insulin secretion (in words) (INS-1 832/13 cells; 4 and 10 mM glucose, or glucose level not specified, listed as Delphinidin-3-glucoside): most active anthocyanin tested

Oc1cc(O)c2cc(O)c(-c3cc(O)c(O)c(O)c3)[o+]c2c1 [delphinidin]
increase in insulin secretion (INS-1 832/13 cells; 4 mM glucose, 50 μg/mL): 6 ng/mg of protein

OCC1OC(Oc2cc3c(O)cc(O)cc3[o+]c2-c2ccc(O)cc2)C(O)C(O)C1O (stereo not shown) [pelargonidin-3-galactoside]
effect on insulin secretion (in words) (INS-1 832/13 cells; 4 mM glucose): did not increase the insulin secretion | effect on insulin secretion (in words) (INS-1 832/13 cells; [5]): did not induce insulin secretion

Oc1ccc(-c2[o+]c3cc(O)cc(O)c3cc2O)cc1 [pelargonidin]
insulin secreted (INS-1 832/13 cells; 4 mM glucose, 50 μg/mL): 49 ng/mg of protein | fold increase in insulin secretion (INS-1 832/13 cells; 4 mM glucose, 50 μg/mL): 1.4 fold | insulin secreted (INS-1 832/13 cells; 10 mM glucose, 50 μg/mL): 91 ng/mg protein | fold increase in insulin secretion (INS-1 832/13 cells; 10 mM glucose, 50 μg/mL): 1.2 fold

COc1cc(-c2[o+]c3cc(O)cc(O)c3cc2O)cc(O)c1O [petunidin]
increase in insulin secretion (INS-1 832/13 cells; 4 mM glucose, 50 μg/mL): 4 ng/mg of protein

C[C@H]1[C@H](C)CC[C@]2(C(=O)O)CC[C@]3(C)C(=CC[C@@H]4[C@@]5(C)CC[C@H](O)C(C)(C)[C@@H]5CC[C@]43C)[C@H]12 [ursolic acid]
weight gain during the treatment period ([1]; listed as 3 (group 5)): 8.78 g | overall weight gain during the experimental period [1]: 17.45 g | effect on body weight (in words) ([1]; compared to high fat diet control): did not decrease bodyweight of the treated animals significantly | weight loss [1]: not significant | body weight [1]: 34.89 g | blood glucose level after 90 min of glucose load [2]: 227 ± 22.982 mg/dL | time at which blood glucose concentration reached the maximum ([2]; after glucose injection): 60 min | glucose tolerance / insulin resistance (in words) ([2]; high fat diet fed mice): corrected glucose levels similar to control group animals fed on normal diet; also recorded: overcame the insulin resistance; also recorded: glucose absorption was slow | plasma insulin level [4]: 52.25 ± 8.84 ng/mL and 52.25 ± 18.84 ng/mL

anthocyanins
hypoglycemia ([4]; mouse, in vivo): without causing hypoglycemia
